“Also recorded” adds a separate entry of the source.
How the values were obtained:
[1] = solubility in excipients and excipient combinations; assay type: physicochemical
Experimental: Determination of the solubility of a spiro-oxindole compound of the invention, as a racemate, a single enantiomer, or a non-racemic mixture of enantiomers, or a pharmaceutically acceptable salt thereof, in each of the above excipients was carried out by weighing a specified quantity of the excipient into a scintillation vial and then adding a weighed quantity of the spiro-oxindole compound of the invention, as a racemate, a single enantiomer, or a non-racemic mixture of enantiomers, or a pharmaceutically acceptable salt thereof. Heating and vortexing was then applied as required to dissolve the spiro-oxindole compound of the invention, as a racemate, a single enantiomer, or a non-racemic mixture of enantiomers, or a pharmaceutically acceptable salt thereof. If the initial quantity of the spiro-oxindole compound of the invention, as a racemate, a single enantiomer, or a non-racemic mixture of enantiomers, or a pharmaceutically acceptable salt thereof, dissolved, then an additional amount of the spiro-oxindole compound of the invention, as a racemate, a single enantiomer, or a non-racemic mixture of enantiomers, or a pharmaceutically acceptable salt thereof, was added to determine the maximum solubility.
The rationale for preparing each combination is given as well: […]

[2] = test system: sodium channel; assay: guanidine influx assay (WO 06/110917, BIOLOGICAL EXAMPLE 1); assay type: cell-based; settings: inhibition of ion flux through a sodium channel
Experimental: Typically, a successful therapeutic effective amount of an pharmaceutical composition of the invention for oral administration to a mammal, in need thereof, will meet some or all of the following criteria. Animal model efficacy of a spiro-oxindole compound of the invention, as a racemate, a single enantiomer, or a non-racemic mixture of enantiomers, or a pharmaceutically acceptable salt thereof, should be less than about 0.1 μg/Kg to about 100 mg/Kg body weight and the target human dose of a spiro-oxindole compound of the invention, as a racemate, a single enantiomer, or a non-racemic mixture of enantiomers, or a pharmaceutically acceptable salt thereof, should be between 0.1 μg/Kg to about 100 mg/Kg body weight, although doses outside of this range may be acceptable (“mg/Kg” means milligrams of compound per kilogram of body mass of the subject to whom it is being administered). The therapeutic index (or ratio of toxic dose to therapeutic dose) of a spiro-oxindole compound of the invention, as a racemate, a single enantiomer, or a non-racemic mixture of enantiomers, or a pharmaceutically acceptable salt thereof, should be greater than 100. […]

[3] = in vivo pharmacokinetic profile after oral administration to dogs; set-up: species or system male beagle dogs; settings: fasted dogs
Experimental: The in vivo pharmacokinetic profiles of the pharmaceutical compositions of the invention were determined as follows. Pharmaceutical compositions of the invention were orally administered to dogs in a controlled experiment to determine pharmacokinetic profile of a spiro-oxindole compound of the invention in a pharmaceutical composition of the invention.
Non-naïve male beagle dogs (Marshall Farms USA, Inc.) ranging in body weights from 6-10 Kg were used for the study. Each dog was fasted overnight before dosing. The fasted dogs (n=3/group) were given a single dose of 100 mg capsule (as setout in Table 4 above) or 400 mg (4×100 mg capsule) by oral administration (PO). Food was returned 4-hours post-dose. Blood samples were collected via jugular venipuncture at various timepoints ([…], 1, 2, 4, 6, 8, 24 and 48 hrs) after administration and plasma concentration was determined by liquid chromatography mass spectroscopy (LC-MS/MS). Concentrations of the active ingredient in the plasma samples at each timepoint were determined using standard methods known to one skilled in the art. The active ingredient concentrations were plotted against time (time in hours versus concentration in ng/mL) and the area under the curve extrapolated to infinity (AUCinf), the Cmax (peak plasma concentration of the active ingredient) and Tmax (time after administration of the pharmaceutical composition when peak plasma concentration level occurs) were calculated.

[4] = biological target: Nav1.7 voltage-gated sodium channel (Homo sapiens, UniProt Q15858); assay: inhibition of Nav1.7
Sequence of Nav1.7 voltage-gated sodium channel (Q15858 whole entry): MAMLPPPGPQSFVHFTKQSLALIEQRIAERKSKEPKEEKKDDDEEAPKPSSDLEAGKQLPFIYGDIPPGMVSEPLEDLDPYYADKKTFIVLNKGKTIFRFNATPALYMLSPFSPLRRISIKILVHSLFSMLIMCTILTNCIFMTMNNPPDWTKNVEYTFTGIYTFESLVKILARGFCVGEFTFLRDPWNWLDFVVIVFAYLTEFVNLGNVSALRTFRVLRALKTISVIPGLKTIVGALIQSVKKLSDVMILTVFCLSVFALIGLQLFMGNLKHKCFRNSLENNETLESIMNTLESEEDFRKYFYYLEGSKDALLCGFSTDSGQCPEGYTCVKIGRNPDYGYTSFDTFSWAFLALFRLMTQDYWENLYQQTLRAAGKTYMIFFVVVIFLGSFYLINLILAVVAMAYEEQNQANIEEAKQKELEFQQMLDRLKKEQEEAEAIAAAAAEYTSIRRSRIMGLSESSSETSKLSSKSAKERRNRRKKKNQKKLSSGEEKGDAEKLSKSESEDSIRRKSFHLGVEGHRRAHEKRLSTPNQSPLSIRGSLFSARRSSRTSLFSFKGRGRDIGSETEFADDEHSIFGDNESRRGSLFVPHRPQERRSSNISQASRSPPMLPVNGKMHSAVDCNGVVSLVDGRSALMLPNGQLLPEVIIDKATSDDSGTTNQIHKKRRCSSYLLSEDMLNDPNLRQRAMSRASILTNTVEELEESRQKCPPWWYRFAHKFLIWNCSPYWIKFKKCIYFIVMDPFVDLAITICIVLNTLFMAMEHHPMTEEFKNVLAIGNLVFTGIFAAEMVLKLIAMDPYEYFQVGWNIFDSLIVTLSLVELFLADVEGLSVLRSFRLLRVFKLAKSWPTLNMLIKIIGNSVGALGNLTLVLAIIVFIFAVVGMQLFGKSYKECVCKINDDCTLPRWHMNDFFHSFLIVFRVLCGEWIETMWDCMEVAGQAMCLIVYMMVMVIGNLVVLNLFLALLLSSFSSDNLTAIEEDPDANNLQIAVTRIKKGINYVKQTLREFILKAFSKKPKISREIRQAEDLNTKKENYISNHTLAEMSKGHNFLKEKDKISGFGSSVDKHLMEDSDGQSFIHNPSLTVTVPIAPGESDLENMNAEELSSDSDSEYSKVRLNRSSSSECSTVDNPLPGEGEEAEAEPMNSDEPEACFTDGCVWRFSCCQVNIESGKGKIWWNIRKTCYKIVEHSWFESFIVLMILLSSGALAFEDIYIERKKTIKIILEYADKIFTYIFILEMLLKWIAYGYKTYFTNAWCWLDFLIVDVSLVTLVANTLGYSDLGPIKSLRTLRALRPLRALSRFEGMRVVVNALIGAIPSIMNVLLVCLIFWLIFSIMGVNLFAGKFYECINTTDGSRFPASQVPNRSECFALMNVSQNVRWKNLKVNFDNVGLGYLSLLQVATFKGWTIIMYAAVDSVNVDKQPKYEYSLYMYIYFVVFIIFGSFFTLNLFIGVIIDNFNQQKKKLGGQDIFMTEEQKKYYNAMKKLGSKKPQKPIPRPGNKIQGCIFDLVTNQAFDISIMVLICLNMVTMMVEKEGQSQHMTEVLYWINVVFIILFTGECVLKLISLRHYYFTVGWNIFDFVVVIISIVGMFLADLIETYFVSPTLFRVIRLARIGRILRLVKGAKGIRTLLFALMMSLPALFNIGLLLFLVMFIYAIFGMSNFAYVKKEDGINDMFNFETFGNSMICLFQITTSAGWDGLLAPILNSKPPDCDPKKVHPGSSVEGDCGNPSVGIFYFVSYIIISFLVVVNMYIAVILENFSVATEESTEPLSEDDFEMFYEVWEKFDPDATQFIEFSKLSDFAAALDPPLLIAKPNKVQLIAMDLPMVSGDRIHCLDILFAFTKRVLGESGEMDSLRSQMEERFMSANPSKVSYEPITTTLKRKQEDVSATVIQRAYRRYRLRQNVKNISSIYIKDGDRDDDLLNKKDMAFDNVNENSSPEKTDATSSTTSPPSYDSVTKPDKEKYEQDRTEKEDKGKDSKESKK

[5] = test system: pain following extraction of impacted third molar teeth; assay: clinical trial for treatment of dental pain; assay type: in vivo, human; settings: single 500 mg oral dose of composition comprising COMPOUND B
Experimental: The purpose of this clinical trial was to compare the safety and efficacy (onset, duration of relief, and overall efficacy) of a single 500 mg dose of a pharmaceutical composition of the invention comprising COMPOUND B versus a placebo dose for relief of pain following extraction of impacted third molar teeth. Sixty-one subjects were enrolled in the study. The mean age for the subjects was 20.4 years, and all subjects were male. The majority of subjects were Caucasians (95.1%). The severity and relief of the pain was measured using an 11-point Pain Intensity Numerical Rating Scale (graded from 0=no pain at all to 10=worst pain imaginable) (PINRS) and a 5-point Categorical Pain Relief Scale (REL). Subjects completed the PINRS after surgery, but before the administration of (S)-enantiomer of the invention. Efficacy variables were derived from the REL and PINRS scores and included total pain relief (TOTPAR), pain intensity difference (PID), and summed pain intensity difference (SPID) and evaluated at time points of 4, 6, 8, and 12 hours after administration of the pharmaceutical composition of the invention comprising COMPOUND B.

| solubility in Labrafac ([1]; excipient Labrafac) | solubility in PEG 400 ([1]; excipient PEG 400) | solution in the excipient combinations of Table 2 ([1]; upon mixing and heating to 70-80° C.) | IC50 [2] [nM] | solubility in caprylic/capric glycerides such as Imwitor 742 ([1]; excipient Imwitor 742, compared with other excipients) | absorption following PO administration ([3]; single PO dose 100 mg or 400 mg) | Tmax ([3]; male, beagle, dog, plasma, single PO dose 100 mg capsule (Table 4) or 400 mg (4×100 mg capsule)) [h] | Cmax ([3]; male, beagle, dog, single PO dose 100 mg capsule (Table 4) or 400 mg (4×100 mg capsule), plasma) [ng/mL] | inhibition of Nav1.7 [4] | SMILES | solubility in Labrasol ([1]; excipient Labrasol) | onset of action [5] | pain relief compared to placebo [5] | statistical significance from the placebo [5] | primary and all secondary endpoints (TOTPAR, PID, SPID) versus placebo ([5]; 4, 6, 8 and 12 hours) |
| --- | --- | --- | --- | --- | --- | --- | --- | --- | --- | --- | --- | --- | --- | --- |
| readily soluble in Labrafac ®. The | readily soluble in PEG 400. PEG | suitable for producing a solution | < 1000 |  |  |  |  |  | O=C1N(Cc2ccc(C(F)(F)F)o2)c2ccccc2C12COc1cc3c(cc12)OCO3 (racemic) [COMPOUND A, 1′-{[5-(trifluoromethyl)-2-furyl]methyl}spiro[furo[2,3-f][1,3]benzodioxole-7,3′-indol]-2′(1′H)-one] | best excipient; also recorded: soluble in Labrasol ®, the excipient |  |  |  |  |
|  |  |  |  | less than other excipients | readily absorbed | 1 to 3 | 1300 to 1600 | has been shown to inhibit | O=C1N(Cc2ccc(C(F)(F)F)o2)c2ccccc2[C@]12COc1cc3c(cc12)OCO3 [COMPOUND B, (S)-1′-{[5-(trifluoromethyl)-2-furyl]methyl}spiro[furo[2,3-f][1,3]benzodioxole-7,3′-indol]-2′(1′-H)-one] |  | slow onset of action | higher | not achieved | consistent analgesic trend |

Source: patent publication US20110086899A1, “PHARMACEUTICAL COMPOSITIONS FOR ORAL ADMINISTRATION” (XENON PHARMACEUTICALS INC., priority 2009, published 2011)
